Results reported in PubChem BioAssay (NCI).
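Five compound concentrations were applied to cells in 96-well plates for 48 hours; endpoints were derived by simple linear interpolation of the resulting dose-response curve. Here, GI50 denotes the concentration required for 50% inhibition of growth. At the TGI there is no net growth.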

Columns and labels:
Assay in all cases: DTP human tumour cell line panel, 48 h
SK-MEL-5 melanoma = tested on: SK-MEL-5 melanoma
LOX IMVI melanoma = tested on: LOX IMVI melanoma
RXF 393 renal = tested on: RXF 393 renal
NCI-H522 lung = tested on: NCI-H522 lung
KM12 colon = tested on: KM12 colon
OVCAR-8 ovarian = tested on: OVCAR-8 ovarian
HCT-116 colon = tested on: HCT-116 colon
HCT-15 colon = tested on: HCT-15 colon
K-562 leukemia = tested on: K-562 leukemia
OVCAR-4 ovarian = tested on: OVCAR-4 ovarian
TK-10 renal = tested on: TK-10 renal
MOLT-4 leukemia = tested on: MOLT-4 leukemia
NCI-H23 lung = tested on: NCI-H23 lung
HOP-92 NSCLC = tested on: HOP-92 NSCLC
RPMI-8226 leukemia = tested on: RPMI-8226 leukemia
BT-549 breast = tested on: BT-549 breast
CAKI-1 renal = tested on: CAKI-1 renal
NCI/ADR-RES ovarian = tested on: NCI/ADR-RES ovarian
T-47D breast = tested on: T-47D breast
OVCAR-5 ovarian = tested on: OVCAR-5 ovarian
U251 CNS = tested on: U251 CNS
SF-268 CNS = tested on: SF-268 CNS
NCI-H460 lung = tested on: NCI-H460 lung
UACC-257 melanoma = tested on: UACC-257 melanoma
HT29 colon = tested on: HT29 colon
MDA-MB-231 breast = tested on: MDA-MB-231 breast
MCF7 breast = tested on: MCF7 breast
SW-620 colon = tested on: SW-620 colon
MDA-MB-435 = tested on: MDA-MB-435
SK-OV-3 ovarian = tested on: SK-OV-3 ovarian
SN12C renal = tested on: SN12C renal
PC-3 prostate = tested on: PC-3 prostate
IGROV1 ovarian = tested on: IGROV1 ovarian
DU-145 prostate = tested on: DU-145 prostate
A498 renal = tested on: A498 renal
UACC-62 melanoma = tested on: UACC-62 melanoma
SF-539 CNS = tested on: SF-539 CNS
ACHN renal = tested on: ACHN renal
NCI-H226 lung = tested on: NCI-H226 lung
SNB-19 CNS = tested on: SNB-19 CNS
SF-295 CNS = tested on: SF-295 CNS
HOP-62 NSCLC = tested on: HOP-62 NSCLC
A549 NSCLC = tested on: A549 NSCLC
COLO 205 colon = tested on: COLO 205 colon
SK-MEL-2 melanoma = tested on: SK-MEL-2 melanoma
OVCAR-3 ovarian = tested on: OVCAR-3 ovarian
HL-60(TB) leukemia = tested on: HL-60(TB) leukemia
UO-31 renal = tested on: UO-31 renal
MALME-3M melanoma = tested on: MALME-3M melanoma
SNB-75 CNS = tested on: SNB-75 CNS
SK-MEL-28 melanoma = tested on: SK-MEL-28 melanoma
EKVX NSCLC = tested on: EKVX NSCLC
HS 578T breast = tested on: HS 578T breast

Cc1nnc2n1N=C(c1ccc(Cl)cc1Cl)/C(=C/c1ccc(-c3ccc([N+](=O)[O-])cc3Cl)o1)S2
GI50 (SK-MEL-5 melanoma): 16.5 µM | TGI (SK-MEL-5 melanoma): 32.6 µM | GI50 (LOX IMVI melanoma): 12.3 µM | TGI (LOX IMVI melanoma): 27.4 µM | GI50 (RXF 393 renal): 11.5 µM | TGI (RXF 393 renal): 25.1 µM | GI50 (NCI-H522 lung): 20.9 µM | TGI (NCI-H522 lung): 44.9 µM | GI50 (KM12 colon): 32.4 µM | TGI (KM12 colon): > 100 µM | GI50 (OVCAR-8 ovarian): 18.1 µM | TGI (OVCAR-8 ovarian): 41.5 µM | GI50 (HCT-116 colon): 12.3 µM | TGI (HCT-116 colon): 24.8 µM | GI50 (HCT-15 colon): 16.9 µM | TGI (HCT-15 colon): 42.9 µM | GI50 (K-562 leukemia): 13.6 µM | TGI (K-562 leukemia): 26.9 µM | GI50 (OVCAR-4 ovarian): 33.4 µM | TGI (OVCAR-4 ovarian): > 100 µM | GI50 (TK-10 renal): 18.4 µM | TGI (TK-10 renal): 34.8 µM | GI50 (MOLT-4 leukemia): 13.1 µM | TGI (MOLT-4 leukemia): 33.6 µM | GI50 (NCI-H23 lung): 12.5 µM | TGI (NCI-H23 lung): 28.1 µM | GI50 (HOP-92 NSCLC): 21.5 µM | TGI (HOP-92 NSCLC): 72.5 µM | GI50 (RPMI-8226 leukemia): 10.2 µM | TGI (RPMI-8226 leukemia): 24.9 µM | GI50 (BT-549 breast): 22.1 µM | TGI (BT-549 breast): 43.3 µM | GI50 (CAKI-1 renal): 25.2 µM | TGI (CAKI-1 renal): 84.8 µM | GI50 (NCI/ADR-RES ovarian): 18.4 µM | TGI (NCI/ADR-RES ovarian): 37.4 µM | GI50 (T-47D breast): 83 µM | TGI (T-47D breast): > 100 µM | GI50 (OVCAR-5 ovarian): 16.5 µM | TGI (OVCAR-5 ovarian): 30.9 µM | GI50 (U251 CNS): 14.9 µM | TGI (U251 CNS): 30.2 µM | GI50 (SF-268 CNS): 24.3 µM | TGI (SF-268 CNS): 66.7 µM | GI50 (NCI-H460 lung): 26 µM | TGI (NCI-H460 lung): > 100 µM | GI50 (UACC-257 melanoma): 18.1 µM | TGI (UACC-257 melanoma): 41.2 µM | GI50 (HT29 colon): 49.9 µM | TGI (HT29 colon): > 100 µM | GI50 (MDA-MB-231 breast): 12.2 µM | TGI (MDA-MB-231 breast): 30.6 µM | GI50 (MCF7 breast): 2.06 µM | TGI (MCF7 breast): 14.3 µM | GI50 (SW-620 colon): 13.3 µM | TGI (SW-620 colon): 33 µM | GI50 (MDA-MB-435): 13.5 µM | TGI (MDA-MB-435): 29 µM | GI50 (SK-OV-3 ovarian): > 100 µM | TGI (SK-OV-3 ovarian): > 100 µM | GI50 (SN12C renal): 17.8 µM | TGI (SN12C renal): 40.9 µM | GI50 (PC-3 prostate): 31.3 µM | TGI (PC-3 prostate): > 100 µM | GI50 (IGROV1 ovarian): 27.5 µM | TGI (IGROV1 ovarian): > 100 µM | GI50 (DU-145 prostate): 18.7 µM | TGI (DU-145 prostate): 38.9 µM | GI50 (A498 renal): 31.7 µM | TGI (A498 renal): 95.8 µM | GI50 (UACC-62 melanoma): 18.4 µM | TGI (UACC-62 melanoma): 39.9 µM | GI50 (SF-539 CNS): 18.5 µM | TGI (SF-539 CNS): 36.6 µM | GI50 (ACHN renal): 18.5 µM | TGI (ACHN renal): 34.6 µM | GI50 (NCI-H226 lung): 20.7 µM | TGI (NCI-H226 lung): 41.1 µM | GI50 (SNB-19 CNS): > 100 µM | TGI (SNB-19 CNS): > 100 µM | GI50 (SF-295 CNS): 43.5 µM | TGI (SF-295 CNS): > 100 µM | GI50 (HOP-62 NSCLC): > 100 µM | TGI (HOP-62 NSCLC): > 100 µM | GI50 (A549 NSCLC): 31.7 µM | TGI (A549 NSCLC): > 100 µM | GI50 (COLO 205 colon): 54.8 µM | TGI (COLO 205 colon): > 100 µM | GI50 (SK-MEL-2 melanoma): 32.8 µM | TGI (SK-MEL-2 melanoma): > 100 µM | GI50 (OVCAR-3 ovarian): 14.4 µM | TGI (OVCAR-3 ovarian): 34 µM | GI50 (HL-60(TB) leukemia): 25.1 µM | TGI (HL-60(TB) leukemia): 62.9 µM | GI50 (UO-31 renal): 14.8 µM | TGI (UO-31 renal): 31 µM | GI50 (MALME-3M melanoma): 21.2 µM | TGI (MALME-3M melanoma): 56.1 µM | GI50 (SNB-75 CNS): 73.2 µM | TGI (SNB-75 CNS): > 100 µM | GI50 (SK-MEL-28 melanoma): 57.3 µM | TGI (SK-MEL-28 melanoma): > 100 µM | GI50 (EKVX NSCLC): 61.2 µM | TGI (EKVX NSCLC): > 100 µM | GI50 (HS 578T breast): 20.2 µM | TGI (HS 578T breast): 50.7 µM
